Laboratory results as given in the SangsterLogP compilation.

Assay: method code SF-AS, from PMID: 1608988
Details: pH 7.3

Row | logD | SMILES
1 | 3.99 | CCCCCCCOc1ccccc1NC(=O)OCCN1CCOCC1
2 | 2.26 | CCCOc1ccccc1NC(=O)OCCN1CCOCC1
3 | 4.8 | CCCCCCCCOc1ccc(NC(=O)OCCN2CCOCC2)cc1
4 | 4.41 | CCCCCCCOc1ccc(NC(=O)OCCN2CCOCC2)cc1
5 | 1.76 | CCOc1ccccc1NC(=O)OCCN1CCOCC1
6 | 4.42 | CCCCCCCCOc1cccc(NC(=O)OCCN2CCOCC2)c1
7 | 2.73 | CCCCOc1ccccc1NC(=O)OCCN1CCOCC1
8 | 4.43 | CCCCCCCCOc1ccccc1NC(=O)OCCN1CCOCC1
9 | 4.19 | CCCCCCOc1cccc(NC(=O)OCCN2CCOCC2)c1
10 | 3.68 | CCCCCCOc1ccccc1NC(=O)OCCN1CCOCC1
11 | 4.73 | CCCCCCCOc1cccc(NC(=O)OCCN2CCOCC2)c1
12 | 3.18 | CCCCCOc1ccccc1NC(=O)OCCN1CCOCC1

The remaining lines, values behind:

Row | SMILES | logD
13 | CCCCCOc1cccc(NC(=O)OCCN2CCOCC2)c1 | 3.58
14 | CCCCOc1cccc(NC(=O)OCCN2CCOCC2)c1 | 3.08
15 | CCCCCCOc1ccc(NC(=O)OCCN2CCOCC2)cc1 | 3.96
16 | CCCCOc1ccc(NC(=O)OCCN2CCOCC2)cc1 | 2.8
17 | CCOc1ccc(NC(=O)OCCN2CCOCC2)cc1 | 1.63
18 | CCCOc1cccc(NC(=O)OCCN2CCOCC2)c1 | 2.5
19 | COc1cccc(NC(=O)OCCN2CCOCC2)c1 | 1.64
20 | COc1ccccc1NC(=O)OCCN1CCOCC1 | 1.2
21 | CCCOc1ccc(NC(=O)OCCN2CCOCC2)cc1 | 2.24
22 | CCCCCOc1ccc(NC(=O)OCCN2CCOCC2)cc1 | 3.41
